{"source": "ChEMBL document CHEMBL1201862", "about": "“PubChem BioAssay data set” (2004)", "key": {"[1]": {"test": "microbe, parasite or virus in culture", "type": "functional", "settings": "Mycobacterium tuberculosis"}, "[2]": {"tested_on": "Streptococcus sp. 'group A'", "test": "growth inhibition of control SK(-) GAS strain, dose response, counter-screen for streptokinase expression inhibitor project, luminescence, kanamycin, BacTiterGlo, confirmation (AID 1900)", "type": "functional, organism-based"}, "[3]": {"test": "Luminescence Cell-Based Dose Retest to Confirm Inhibitors of Cancer Stem Cells. [Related pubchem assays (depositor defined):AID2717, AID2721]", "type": "functional", "settings": "Homo sapiens"}, "Streptokinase A": {"molecular_target": "T1, Streptokinase A (Streptococcus pyogenes serotype M1, UniProt P10520)", "T1 sequence (P10520 whole entry)": "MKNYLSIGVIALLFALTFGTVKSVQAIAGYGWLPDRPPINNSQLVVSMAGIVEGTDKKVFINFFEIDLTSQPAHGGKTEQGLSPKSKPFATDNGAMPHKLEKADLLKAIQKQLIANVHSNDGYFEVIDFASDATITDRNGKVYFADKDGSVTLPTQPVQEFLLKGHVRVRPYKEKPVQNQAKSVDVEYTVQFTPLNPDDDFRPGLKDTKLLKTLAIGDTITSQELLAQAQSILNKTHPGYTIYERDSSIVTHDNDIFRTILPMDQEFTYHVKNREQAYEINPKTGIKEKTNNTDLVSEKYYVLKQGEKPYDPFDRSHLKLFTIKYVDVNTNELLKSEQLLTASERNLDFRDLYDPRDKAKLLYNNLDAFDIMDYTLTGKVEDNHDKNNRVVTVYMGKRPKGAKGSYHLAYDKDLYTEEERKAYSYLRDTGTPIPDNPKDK", "test": "S. pyogenes streptokinase expression inhibitors, potency, dose response, plasminogen activation absorbance, OD405 (AID 1914);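 also: secreted streptokinase activity via plasminogen activation per viability signal from cell pellet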", "type": "functional, Streptococcus pyogenes M1 GAS"}, "Streptococcus": {"tested_on": "Streptococcus", "test": "Group A Streptococcus viability loss, dose response, counter-screen for streptokinase expression inhibitor project, luminescence, BacTiterGlo (AID 1915);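 also: potency for reduction of bacterial viability or growth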", "type": "functional, organism-based"}, "Fatty acid synthase [4]": {"molecular_target": "T2, Fatty acid synthase (Homo sapiens, UniProt P49327)", "T2 sequence (P49327 whole entry, the tested form may be a part)": "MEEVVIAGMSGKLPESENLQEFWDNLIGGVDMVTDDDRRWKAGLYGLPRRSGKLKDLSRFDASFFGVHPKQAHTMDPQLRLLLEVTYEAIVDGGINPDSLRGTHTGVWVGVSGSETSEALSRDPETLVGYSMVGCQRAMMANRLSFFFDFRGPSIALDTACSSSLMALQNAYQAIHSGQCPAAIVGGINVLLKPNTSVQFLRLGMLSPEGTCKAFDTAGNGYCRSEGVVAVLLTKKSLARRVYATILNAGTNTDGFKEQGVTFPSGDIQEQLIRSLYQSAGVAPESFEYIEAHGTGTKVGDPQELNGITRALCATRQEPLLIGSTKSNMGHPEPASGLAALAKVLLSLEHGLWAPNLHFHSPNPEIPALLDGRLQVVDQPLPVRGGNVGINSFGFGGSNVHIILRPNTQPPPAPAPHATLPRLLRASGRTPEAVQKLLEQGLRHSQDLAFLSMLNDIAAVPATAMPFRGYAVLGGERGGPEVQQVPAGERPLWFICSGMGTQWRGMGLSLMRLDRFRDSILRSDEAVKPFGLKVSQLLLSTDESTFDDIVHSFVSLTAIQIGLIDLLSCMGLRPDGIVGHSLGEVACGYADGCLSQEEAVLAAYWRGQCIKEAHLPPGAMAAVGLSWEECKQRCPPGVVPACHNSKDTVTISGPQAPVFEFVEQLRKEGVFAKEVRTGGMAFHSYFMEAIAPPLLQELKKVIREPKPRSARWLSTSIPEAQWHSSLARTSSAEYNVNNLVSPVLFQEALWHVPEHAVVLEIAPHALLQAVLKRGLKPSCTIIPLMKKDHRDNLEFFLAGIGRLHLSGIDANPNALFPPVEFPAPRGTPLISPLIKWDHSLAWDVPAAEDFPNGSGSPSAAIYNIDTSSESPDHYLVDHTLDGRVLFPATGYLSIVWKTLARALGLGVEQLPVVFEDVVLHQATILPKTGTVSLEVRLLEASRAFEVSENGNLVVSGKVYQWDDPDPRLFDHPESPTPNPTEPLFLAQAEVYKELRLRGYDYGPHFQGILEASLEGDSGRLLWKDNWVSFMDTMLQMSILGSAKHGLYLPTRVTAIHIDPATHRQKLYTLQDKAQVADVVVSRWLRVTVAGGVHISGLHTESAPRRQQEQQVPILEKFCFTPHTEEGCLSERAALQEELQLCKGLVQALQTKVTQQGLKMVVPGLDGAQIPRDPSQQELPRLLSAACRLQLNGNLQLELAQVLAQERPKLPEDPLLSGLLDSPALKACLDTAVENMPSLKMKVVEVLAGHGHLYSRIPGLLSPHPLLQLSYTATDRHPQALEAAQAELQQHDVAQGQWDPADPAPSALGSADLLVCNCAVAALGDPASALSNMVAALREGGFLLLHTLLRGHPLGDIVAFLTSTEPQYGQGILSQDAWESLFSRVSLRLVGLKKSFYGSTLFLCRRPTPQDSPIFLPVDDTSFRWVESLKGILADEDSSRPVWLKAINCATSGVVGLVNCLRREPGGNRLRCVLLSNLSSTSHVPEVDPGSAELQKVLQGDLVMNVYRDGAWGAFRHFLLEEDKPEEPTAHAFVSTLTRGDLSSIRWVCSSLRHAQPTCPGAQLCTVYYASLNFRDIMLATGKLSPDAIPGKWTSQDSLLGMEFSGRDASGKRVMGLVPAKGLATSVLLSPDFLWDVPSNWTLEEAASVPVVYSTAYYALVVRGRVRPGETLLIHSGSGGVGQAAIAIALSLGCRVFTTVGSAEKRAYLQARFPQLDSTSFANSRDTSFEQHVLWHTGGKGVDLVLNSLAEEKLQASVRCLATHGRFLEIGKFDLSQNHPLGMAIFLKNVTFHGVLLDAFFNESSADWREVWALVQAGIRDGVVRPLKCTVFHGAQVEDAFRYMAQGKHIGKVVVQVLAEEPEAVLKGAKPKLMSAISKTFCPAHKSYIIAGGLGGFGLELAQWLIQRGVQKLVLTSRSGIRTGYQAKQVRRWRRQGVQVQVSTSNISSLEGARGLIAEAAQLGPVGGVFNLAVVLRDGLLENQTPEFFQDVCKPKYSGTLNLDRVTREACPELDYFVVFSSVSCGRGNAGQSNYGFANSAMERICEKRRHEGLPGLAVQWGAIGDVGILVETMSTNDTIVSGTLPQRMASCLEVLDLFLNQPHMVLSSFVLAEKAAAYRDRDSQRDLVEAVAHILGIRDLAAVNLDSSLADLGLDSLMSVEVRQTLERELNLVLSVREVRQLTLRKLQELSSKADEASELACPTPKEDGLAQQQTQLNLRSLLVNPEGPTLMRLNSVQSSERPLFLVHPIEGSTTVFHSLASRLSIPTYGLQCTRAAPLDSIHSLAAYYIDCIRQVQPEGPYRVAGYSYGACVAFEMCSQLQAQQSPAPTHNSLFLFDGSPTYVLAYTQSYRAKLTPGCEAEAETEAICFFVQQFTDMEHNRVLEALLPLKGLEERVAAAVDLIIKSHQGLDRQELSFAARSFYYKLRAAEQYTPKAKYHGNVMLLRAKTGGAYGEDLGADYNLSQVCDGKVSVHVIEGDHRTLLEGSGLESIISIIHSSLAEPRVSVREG", "test": "FAS thioesterase domain inhibitors, dose response, biochemical, endpoint fluorescence intensity, uHTS hits (AID 624327);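 also: fluorescence from hydrolysis of an O-methyl fluorescein acyl ester substrate by the enzyme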", "type": "functional"}, "Fatty acid synthase [5]": {"molecular_target": "T2, Fatty acid synthase", "test": "FAS thioesterase domain inhibitors, dose response, biochemical, kinetic fluorescence intensity (AID 624326);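 also: rate of fluorescence rise from hydrolysis of a fluorogenic O-methyl fluorescein ester substrate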", "type": "functional"}, "[6]": {"molecular_target": "T3, Rac GTPase-activating protein 1 (Homo sapiens, UniProt Q9H0H5)", "T3 sequence (Q9H0H5 whole entry)": "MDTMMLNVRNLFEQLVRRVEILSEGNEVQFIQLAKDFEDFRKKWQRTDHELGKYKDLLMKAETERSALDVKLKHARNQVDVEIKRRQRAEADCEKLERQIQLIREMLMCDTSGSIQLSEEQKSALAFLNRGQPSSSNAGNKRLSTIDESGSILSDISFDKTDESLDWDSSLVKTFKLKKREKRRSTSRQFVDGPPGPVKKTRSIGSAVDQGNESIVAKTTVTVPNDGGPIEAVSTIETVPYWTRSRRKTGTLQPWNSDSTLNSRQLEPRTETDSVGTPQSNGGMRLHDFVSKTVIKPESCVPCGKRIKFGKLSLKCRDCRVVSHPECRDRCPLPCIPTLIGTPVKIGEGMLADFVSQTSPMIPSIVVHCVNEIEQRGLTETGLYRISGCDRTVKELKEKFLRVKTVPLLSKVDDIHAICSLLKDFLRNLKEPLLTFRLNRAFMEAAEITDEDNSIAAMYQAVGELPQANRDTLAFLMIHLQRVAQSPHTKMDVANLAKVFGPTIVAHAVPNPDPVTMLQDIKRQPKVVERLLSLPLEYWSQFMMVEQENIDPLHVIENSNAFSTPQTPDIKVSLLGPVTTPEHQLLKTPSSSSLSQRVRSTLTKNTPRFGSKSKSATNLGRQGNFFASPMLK", "test": "MgcRacGAP GTPase-activating activity inhibitors, confirmation, biochemical, ADP Hunter fluorescence, primary and confirmatory (AID 624330)", "type": "functional"}, "[7]": {"molecular_target": "T4, Zinc finger protein mex-5 (Caenorhabditis elegans, UniProt Q9XUB2)", "T4 sequence (Q9XUB2 whole entry)": "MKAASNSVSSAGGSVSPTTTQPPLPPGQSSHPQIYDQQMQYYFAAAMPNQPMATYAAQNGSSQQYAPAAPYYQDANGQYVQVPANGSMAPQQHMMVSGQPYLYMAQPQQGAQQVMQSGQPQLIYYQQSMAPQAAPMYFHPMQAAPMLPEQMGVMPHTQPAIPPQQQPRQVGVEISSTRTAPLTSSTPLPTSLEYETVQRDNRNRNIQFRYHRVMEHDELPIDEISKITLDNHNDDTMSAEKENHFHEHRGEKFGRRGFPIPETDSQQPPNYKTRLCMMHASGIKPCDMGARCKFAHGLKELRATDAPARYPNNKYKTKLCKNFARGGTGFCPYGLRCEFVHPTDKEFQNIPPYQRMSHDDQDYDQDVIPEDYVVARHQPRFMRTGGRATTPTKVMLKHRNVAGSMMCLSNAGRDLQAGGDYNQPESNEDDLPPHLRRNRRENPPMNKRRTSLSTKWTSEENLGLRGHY", "test": "MEX-5/TCR-2 RNA interaction inhibitors, dose response, biochemical, C. elegans, fluorescence polarization (AID 1960)"}, "[8]": {"molecular_target": "T5, RNA-binding protein pos-1 (Caenorhabditis elegans, UniProt G5EF15)", "T5 sequence (G5EF15 whole entry)": "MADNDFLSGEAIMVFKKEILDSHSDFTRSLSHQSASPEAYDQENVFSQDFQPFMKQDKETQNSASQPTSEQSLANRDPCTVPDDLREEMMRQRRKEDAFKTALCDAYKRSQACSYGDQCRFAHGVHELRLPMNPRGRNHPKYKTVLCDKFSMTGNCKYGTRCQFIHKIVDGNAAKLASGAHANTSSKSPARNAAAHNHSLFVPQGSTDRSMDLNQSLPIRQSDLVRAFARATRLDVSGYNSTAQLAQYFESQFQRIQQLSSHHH", "test": "inhibitors of POS-1/mex-3 RNA binding, dose response, biochemical, fluorescence polarization (AID 1964);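 also: purified POS-1 fused to maltose binding protein made in E. coli; potency of compounds blocking POS-1 binding to fluorescent RNA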"}, "[9]": {"molecular_target": "T6, Heat shock factor protein 1 (Mus musculus, UniProt P38532)", "T6 sequence (P38532 whole entry)": "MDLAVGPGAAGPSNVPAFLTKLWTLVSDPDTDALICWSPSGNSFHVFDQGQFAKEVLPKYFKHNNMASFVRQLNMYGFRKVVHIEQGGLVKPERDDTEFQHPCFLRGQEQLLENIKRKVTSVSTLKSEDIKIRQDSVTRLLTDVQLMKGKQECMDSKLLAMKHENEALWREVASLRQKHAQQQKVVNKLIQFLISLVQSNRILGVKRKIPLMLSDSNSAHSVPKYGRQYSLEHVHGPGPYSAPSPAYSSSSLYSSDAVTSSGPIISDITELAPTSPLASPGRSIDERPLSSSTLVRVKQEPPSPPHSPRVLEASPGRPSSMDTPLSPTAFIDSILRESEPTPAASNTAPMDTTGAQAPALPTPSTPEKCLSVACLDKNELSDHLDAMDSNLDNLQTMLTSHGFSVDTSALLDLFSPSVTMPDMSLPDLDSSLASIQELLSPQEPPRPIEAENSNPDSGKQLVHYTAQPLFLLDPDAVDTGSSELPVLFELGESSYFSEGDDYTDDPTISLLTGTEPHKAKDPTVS", "test": "inhibition of MG132-induced HSE-luciferase signal, confirmation, cell-based, NIH3T3, luminescence, dose retest (AID 2382);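 also: NIH3T3 fibroblasts with HSF1-driven luciferase reporter stressed by proteasome inhibitor MG132; luminescence from HSF1-driven luciferase expression after 8 hours of MG132 stress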", "type": "functional"}, "[10]": {"test": "Shn3 3'UTR reporter inhibitors, dose response, cell-based, Clone20 osteoblasts, firefly luciferase, cherry-picked (AID 624132)", "type": "functional"}, "[11]": {"test": "HepG2 cell cytotoxicity, dose response, cytotoxicity control for Shn3 inhibitor project, CellTiter-Glo, cherry-picked (AID 624134)", "type": "functional, cell-based"}, "[12]": {"test": "control 3'UTR Renilla luciferase suppression, dose response, counter-screen for Shn3 inhibitor project, cell-based, Clone20-Shn3RL, cherry-picked (AID 624133)", "type": "functional"}, "SN12K1": {"tested_on": "SN12K1", "test": "cells", "type": "functional", "settings": "Homo sapiens"}}, "note": "Calls of active or inactive are those of the source.", "data": [{"molecule": "N#Cc1c(-c2ccccc2)c(-c2ccccc2)nn(CC(=O)NNC(=O)Nc2ccc(Cl)c(Cl)c2)c1=O", "values": [{"measurement": "CC50", "setting": "[1]", "result": "32.9 µM (active)"}, {"measurement": "EC50", "setting": "[2]", "result": "5.78 µM (active)"}, {"measurement": "AC50", "setting": "[3]", "result": "1.75 µM (active)"}, {"measurement": "EC50", "setting": "Streptokinase A", "result": "4 µM (active)"}, {"measurement": "EC50", "setting": "Streptococcus", "result": "103 µM (active)"}, {"measurement": "IC50", "setting": "Fatty acid synthase [4]", "result": "7.91 µM (active)"}, {"measurement": "IC50", "setting": "Fatty acid synthase [5]", "result": "8.07 µM (active)"}]}, {"molecule": "Cc1cnc(C(=O)Oc2ccc(-c3ccccc3)cc2)cn1", "values": [{"measurement": "IC50", "setting": "[6]", "result": "12.5 µM (active)"}]}, {"molecule": "C[C@@]12C(=O)Nc3ccccc3C(=O)N1[C@H]1c3cc(Br)ccc3OC[C@@H]1[C@@H]2c1ccccc1", "values": [{"measurement": "IC50", "setting": "Fatty acid synthase [4]", "result": "16.2 µM (active)"}, {"measurement": "IC50", "setting": "Fatty acid synthase [5]", "result": "11.8 µM (active)"}]}, {"molecule": "CCN(C(=O)CSc1ncnc2c1cnn2-c1ccccc1)C1CCS(=O)(=O)C1", "note": "(stereo unspecified)", "values": [{"measurement": "IC50", "setting": "Fatty acid synthase [4]", "result": "5.88 µM (active)"}, {"measurement": "IC50", "setting": "Fatty acid synthase [5]", "result": "4.94 µM (active)"}]}, {"molecule": "O=C(COC(=O)c1cc([N+](=O)[O-])ccc1N1CCOCC1)Nc1cc(F)ccc1F", "values": [{"measurement": "IC50", "setting": "Fatty acid synthase [4]", "result": "2.25 µM (active)"}, {"measurement": "IC50", "setting": "Fatty acid synthase [5]", "result": "1.57 µM (active)"}]}, {"molecule": "COc1ccccc1C(=O)Nc1ccnn1C1CCN(C(C)CSC)CC1", "note": "(stereo unspecified)", "values": [{"measurement": "EC50", "setting": "[7]", "result": "> 300 µM (inconclusive)"}, {"measurement": "EC50", "setting": "[8]", "result": "> 300 µM (not active)"}]}, {"molecule": "Cc1cccc(COC[C@H](CC(C)C)N2CCN(C(=O)c3ccc(C(C)(C)C)cc3)CCC2=O)c1", "values": [{"measurement": "IC50", "setting": "Fatty acid synthase [4]", "result": "7.65 µM (active)"}, {"measurement": "IC50", "setting": "Fatty acid synthase [5]", "result": "7.54 µM (active)"}]}, {"molecule": "Cc1csc(NC(=O)C2CCN(S(=O)(=O)c3ccc4c(c3)oc(=O)n4C)CC2)n1", "values": [{"measurement": "IC50", "setting": "Fatty acid synthase [4]", "result": "8.65 µM (active)"}, {"measurement": "IC50", "setting": "Fatty acid synthase [5]", "result": "6.81 µM (active)"}]}, {"molecule": "Cc1ccc(-n2c(=O)c(C#N)cc3c(=O)n4ccccc4nc32)cc1C", "values": [{"measurement": "EC50", "setting": "[7]", "result": "55.8 µM (active)"}, {"measurement": "EC50", "setting": "[8]", "result": "> 300 µM (not active)"}]}, {"molecule": "CN(C)c1ccc(NS(=O)(=O)c2cc(Cl)ccc2Cl)cc1", "values": [{"measurement": "EC50", "setting": "[9]", "result": "> 195 µM (not active)"}, {"measurement": "IC50", "setting": "[6]", "result": "57.7 µM (active)"}]}, {"molecule": "CC(C)C1C(=O)N(Cc2cn(CCC3OCCO3)nn2)CCS(=O)(=O)N1Cc1ccc(-c2ccc(Cl)c(Cl)c2)cc1", "note": "(stereo unspecified)", "values": [{"measurement": "AC50", "setting": "[10]", "result": "1.28 µM (active)"}, {"measurement": "AC50", "setting": "[11]", "result": "> 70 µM (inactive)"}, {"measurement": "AC50", "setting": "[12]", "result": "3.36 µM (active)"}]}, {"molecule": "C[C@@](O)(/C=C/[C@H]1CC=CC(=O)O1)[C@@H](C[C@@H](O)\\C=C/C=C\\C=C\\CO)OP(=O)(O)O", "note": "[FOSTRIECIN SODIUM]", "values": [{"measurement": "GI50", "setting": "SN12K1", "result": "3.72 µM (inactive)"}]}, {"molecule": "O=C(c1ccccc1)c1coc2ccc(O)c(Cl)c12", "values": [{"measurement": "IC50", "setting": "[6]", "result": "75.4 µM (active)"}]}, {"molecule": "CC1CCc2nn(CC(=O)NCCN3CCCCC3C)cc2C1", "note": "(stereo unspecified)", "values": [{"measurement": "EC50", "setting": "[7]", "result": "> 300 µM (not active)"}, {"measurement": "EC50", "setting": "[8]", "result": "> 300 µM (not active)"}]}]}
